Biological target: T1, human recombinant TG2 (Homo sapiens, UniProt P21980)
T1 construct: gene TGM2; recombinant, enzymatically active
T1 sequence (P21980 2-687): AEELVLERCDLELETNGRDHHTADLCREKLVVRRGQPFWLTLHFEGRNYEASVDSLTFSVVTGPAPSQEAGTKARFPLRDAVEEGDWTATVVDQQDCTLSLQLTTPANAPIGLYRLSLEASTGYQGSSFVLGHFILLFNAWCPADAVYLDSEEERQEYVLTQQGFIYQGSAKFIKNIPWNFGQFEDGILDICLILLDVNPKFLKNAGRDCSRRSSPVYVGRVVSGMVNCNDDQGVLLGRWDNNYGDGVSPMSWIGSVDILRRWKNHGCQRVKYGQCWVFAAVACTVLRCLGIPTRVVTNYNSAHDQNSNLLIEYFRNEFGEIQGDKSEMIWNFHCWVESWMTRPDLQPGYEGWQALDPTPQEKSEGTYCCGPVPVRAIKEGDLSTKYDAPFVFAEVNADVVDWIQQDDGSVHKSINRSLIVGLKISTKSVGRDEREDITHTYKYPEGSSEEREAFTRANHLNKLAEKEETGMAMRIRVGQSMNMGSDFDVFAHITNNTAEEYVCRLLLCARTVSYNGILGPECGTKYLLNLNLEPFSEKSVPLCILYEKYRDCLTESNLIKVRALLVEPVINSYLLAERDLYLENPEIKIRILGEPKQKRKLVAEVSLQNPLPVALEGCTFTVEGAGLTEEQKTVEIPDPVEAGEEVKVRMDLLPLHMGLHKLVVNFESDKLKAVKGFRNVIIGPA
Test: in vitro serotonylation of Rac1 peptide, ESI-MS
Format: biochemical
Conditions: 1 mM serotonin, biotinylated Rac1 peptide co-substrate, 10 mM CaCl2, pH 7.4, 37 °C overnight

NCCc1c[nH]c2ccc(O)cc12 [5-HT]
in vitro serotonylation of Rac1 peptide, ESI-MS: the peptide was modified with a single serotonin moiety

From publication PMC10823224, “γδ T cell antigen receptor polyspecificity enables T cell responses to a broad range of immune challenges” (Proceedings of the National Academy of Sciences of the …, 2024)
